Experimental findings from US5821353A, “DNA encoding 1,3 beta-D glucan synthase subunits” (Merck & Co., Inc., priority 1996, dated 1998) are described below.

In brackets after ≈: the same amount, converted by molar mass. Like-named read-outs stand apart in the source and are kept apart here. *1 amine or outer side, *2 acyl side, *3 side chain or, on linkers, in order; H or OH if unused. Where a SMILES comes first, the peptide text is derived from it. Bridges are numbered along the chain shown (N, C = ends). [ ]: non-standard residue; d: D form. The star is where a group is joined. ξ: configuration not given here. Orn(4R-OH,5R-OH) = O=C([C@H](C[C@@H](O)[C@@H](O)N[*:3])N[*:1])[*:2]; hTyr(3S-OH,4S-OH) = N[C@H](C(=O)O)[C@H](O)[C@@H](O)c1ccc(O)cc1; ξOrn(4,5-diOH) = O=C(C(CC(O)C(O)N[*:3])N[*:1])[*:2]; ξhTyr(βξ-OH,γξ-OH) = NC(C(=O)O)C(O)C(O)c1ccc(O)cc1; Pro(3S-OH,4S-Me) = C[C@H]1CN[C@H](C(=O)O)[C@H]1O; Benzoyl(4-octyloxy) = CCCCCCCCOc1ccc(C(=O)*)cc1; ξPro(3ξ-OH,4ξ-Me) = CC1CNC(C(=O)O)C1O; Palmitoyl = CCCCCCCCCCCCCCCC(=O)*; Hyp = O=C(O)[CH]1C[CH](O)CN1

For one assay, the system named is S. cerevisiae MY2256. As to the kind of experiment: MIC assay. It counts as cell-based. Conditions: Saccharomyces cerevisiae, MY2256, 42 h. As to the method: (§1) The sensitivities of pcr1(fks2-1) fks1-1 and pcr1(fks2-1) FKS1 strains to L-733,560, L-636,947 (Aculeacin), and L-687,781 (Dihydropapulocandin) were determined in MIC assays. Briefly, strains were grown to stationary phase in 5.0 ml of liquid YPAD medium. MY2256 precultures were grown in liquid YPAD10Ca. MIC assays were performed in flat well microtiter plates in triplicate. Each well of the microtiter plate was filled with 100 mcL of YPAD medium. To the first well, 100 mcL of a 4× solution of drug in YPAD medium was added. To serve as a control, a stock solution of […] of YPAD was made. 100 mcL of this solution was added to the initial well for strains grown in the presence of solvent but the absence of drug. Two-fold serial dilutions of the drug were performed down the plate.
(§2) Cultures were diluted to 5×10^5 cells/ml in YPAD (1 OD660 =3.3×10^7 cells/ml). 100 mcL of diluted culture was added to each well, resuspended, and incubated at 28° C. After 42 hours, cultures were resuspended and cells densities measured in an SLT Laboratories 340 ATTC microtiter plate reader.

The subject of assay [1] is S. cerevisiae YFK0931-07B. Briefly: MIC assay. The conditions noted are these: Saccharomyces cerevisiae, YFK093107B, 42 h. It counts as cell-based. As to the method:
as §1, §2

Assay [2] relates to S. cerevisiae FKS1 pcr1 spores. As to the kind of experiment: drug phenotype of segregants from tetrad analysis. It counts as cell-based, Saccharomyces cerevisiae. An excerpt: YFK0996-11B (MATa fks1-1 pcr1) was also crossed to YFK0005 (MATalpha FKS1 PCR1). In this cross, the pcr1 and fks1-1 mutations segregate independently. In the 16 four-spore and 20 three-spore tetrads, the segregation pattern of 1 Parental Ditype: 1 Non Parental Ditype : 4 Tetratype tetrads is indicative of two unlinked genes. […] Strains MY2257 (also known as YFK1088-23B, MATa FKS1 +pcr1), MY2258 (also known as YFK1088-16D, MATalpha FKS1+pcr1), and YFK1088-02D (MATa FKS1 +pcr1) were segregants from this cross. As shown in the table below, these segregants contain the pcr1 mutation in a wild-type FKS1 background and lack plasmid pDL1 present in the original mutant.

In assay [3] the test system is S. cerevisiae YFK007 (wild type). As to the kind of experiment: primary screen, zone size on agar. It counts as cell-based, Saccharomyces cerevisiae. Conditions: 20 ng FK506, 10 mcg CsA, 10 mcg L733,560, 20 mcg aculeacin, 20 mcg papulacandin, 48 h. The protocol:
(§3) Each strain is grown at 28°-30° C. in YPAD/10 mM CaCl2 medium with shaking at 220 rpm (to mid or late log phase). The cultures are diluted 1:10 with water, and the OD values of the dilutions are measured at 600 nm (against a blank of YPAD/10 mM CaCl2 similarly diluted 1:10 in water). The OD value is multiplied by 10 to estimate the OD of the culture. Portions (100 ml) of YPAD/10 mM CaCl2 medium containing 1.5% agar, equilibrated at 45° C. in a water bath, are seeded with culture such that the final cell density in the agar would have an OD value of 0.015 (i.e., 3×10^6 cfu/ml; a sample calculation is provided below). The seeded agar is poured into 500 cm^2 Nunc plates. Once the agar plates have solidified, 10 mcL aliquots of samples containing test compounds, such as fermentation extracts, are dissolved in water, 100% methanol or ethanol, or up to 50% DMSO and are placed on each member of the two-plate set in 11 by 8 arrays.
(§4) The plates are incubated for 48 h at 28°-30° C. Diameters of the zones are read to the outermost edge and recorded in mm. The clarity of the zone is reported as clear (no designation), hazy (h), or very hazy (vh). Very hazy zones are best seen by viewing the plate under an elevated light placed between the assay dish and a dark wall.

Assay [4] concerns S. cerevisiae YFK532-7C (fks1-1). Briefly: primary screen, zone size on agar. It counts as cell-based, Saccharomyces cerevisiae. The conditions noted are these: 20 ng FK506, 10 mcg CsA, 10 mcg L733,560, 20 mcg aculeacin, 20 mcg papulacandin, 48 h. As to the method: as §3, §4
In assay [5] the test system is S. cerevisiae YFK798 (fks1-1 + CN). Briefly: primary screen, zone size on agar (calcineurin counter screen). The conditions noted are these: 20 ng FK506, 10 mcg CsA, 10 mcg L733,560, 20 mcg aculeacin, 20 mcg papulacandin, 48 h. It counts as cell-based, Saccharomyces cerevisiae. As to the method:
Counter screening strains were devised for identifying calcineurin inhibitors. Overexpression of yeast calcineurin in the fks1-1 mutant (strain YFK798) constitutes the most general of these. […] Glucan synthase inhibitors show neither effect and thus can be distinguished from calcineurin inhibitors.
as §3, §4

The test system of a further assay is S. cerevisiae R560-1C. As to the kind of experiment: secondary screen, zone size on agar. It counts as cell-based, Saccharomyces cerevisiae. The conditions noted are these: 20 ng FK506, 10 mcg CsA, 10 mcg L733,560, 20 mcg aculeacin, 20 mcg papulacandin. As to the method:
(§5) For positively identifying glucan synthase inhibitors, screening with strain R560-1C and its parent W303-1A was instituted in a manner identical to that described for calcineurin inhibitors. Complete loss of a zone, or marked reduction in size, on R560-1C versus W303-1A indicates a glucan synthase inhibitor. No zones are seen with calcineurin inhibitors using this pair of strains.
as §3, §4

Another assay concerns S. cerevisiae W303-1A. Briefly: secondary screen, zone size on agar. It counts as cell-based, Saccharomyces cerevisiae. Conditions: 20 ng FK506, 10 mcg CsA, 10 mcg L733,560, 20 mcg aculeacin, 20 mcg papulacandin. As to the method:
as §5, §3, §4

In assay [6] the test system is S. cerevisiae FKS1 pcr1 (fks2-1): MY2257, MY2258. Briefly: MIC assay. It counts as cell-based, Saccharomyces cerevisiae. The conditions noted are these: less than 10% growth, 42 hours. The protocol:
as §1
(§6) Cultures were diluted to 5×10^5 cells/ml in YPAD (1 OD660 =3.3×10^7 cells/ml). 100 mcL of diluted culture was added to each well, resuspended, and incubated at 28° C. After 42 hours, cultures were resuspended and cells densities measured in an SLT Laboratories 340 ATTC microtiter plate reader. The MICs concentrations presented in the table below represent the concentrations of drug that result in less than 10% growth of the strain grown in the absence of drug.

Assay [7] has as its system S. cerevisiae fks1-1 PCR1 YFK0688-14B. As to the kind of experiment: MIC assay. It counts as cell-based, Saccharomyces cerevisiae. The conditions noted are these: less than 10% growth of no-drug control, 42 hours, 28° C. The protocol: as §1, §6
Assay [8] relates to S. cerevisiae fks1-1 pcr1 (fks2-1): MY2256, YFK0996-11B, MY2259, MY2260. As to the kind of experiment: MIC assay. It counts as cell-based, Saccharomyces cerevisiae. Conditions: less than 10% growth, 42 hours. The protocol: as §1, §6
Assay [9] has as its system S. cerevisiae wild type YFK0005. As to the kind of experiment: MIC assay. Conditions: less than 10% growth of no-drug control, 42 hours, 28° C. It counts as cell-based, Saccharomyces cerevisiae. As to the method:
as §1, §6

The subject of assay [10] is S. cerevisiae R560-1 / R560-1C (fks1-2). Briefly: liquid MIC assay of resistant clone. It counts as cell-based, Saccharomyces cerevisiae. The protocol: Strain W303-1A was transformed by the spheroplast method (MYG) with yeast genomic libraries obtained from D. Botstein (1982. Cell, 28:145-154). Transformants selected on uracil dropout medium were pooled and stored at -80° C. in 20% glycerol. After determining the titer (colony forming units(CFU)/ml), aliquots of the stocks were spread at .congruent.5×10^3 CFU per plate onto uracil dropout medium containing the semisynthetic echinocandin L-733,560 at 0.5 mcg/ml or 1.25 mcg/ml. This concentration of L-733,560 is sufficient to select for resistant clones. Twenty-seven drug resistant colonies were isolated. […] Briefly, L-733,560 was serially diluted across the wells of a sterile microtiter plate such that the concentration in each row ranged from 16 to 0.03 mcg/ml in 2-fold increments after an equal volume of a cell suspension in liquid uracil dropout medium was added. After 24 h at 30° C., plates were read in a spectrophotometer at a wavelength of 600 nm, and the percent of control growth in each well (relative to a no-drug control well) was calculated. […]
Because this strain was isolated as a transfornant from the genomic library, it was expected that resistance would be due to the gene residing on the plasmid contained in R560-1. […] R560-1C was mated to the wild type strain W303-1B, sporulated, dissected, and the sensitivity to L-733,560 quantitated by liquid MIC assay. […]

With `CCC1C=C(C)CC(C)CC(OC)C2OC(O)(C(=O)C(=O)N3CCCCC3C(=O)OC(C(C)=CC3CCC(O)C(OC)C3)C(C)C(O)CC1=O)C(C)CC2OC` (stereo not drawn) [FK520], the MIC (in the assay with S. cerevisiae MY2256; in assay [1]) was 0.06 µg/mL (≈ 0.0758 µM) throughout. In assay [2], the “drug resistance phenotype of spores” value was “resistant”.

On to `CCCCCCCCCCCCCCCC(=O)NC1CC(O)C(O)NC(=O)C2C(O)C(C)CN2C(=O)C(C(C)O)NC(=O)C(C(O)C(O)c2ccc(O)cc2)NC(=O)C2CC(O)CN2C(=O)C(C(C)O)NC1=O` [L-636,947, aculeacin] (Palmitoyl-[ξOrn(4,5-diOH)]T[Hyp][ξhTyr(βξ-OH,γξ-OH)]T[ξPro(3ξ-OH,4ξ-Me)]; lactam 1-C; configuration not given here), for which the “Primary Screen Zone size (mm)” value in [3] is reported as 22-24 mm; in assay [4], 27-30 mm; in assay [5], 27-30 mm. For the same compound, the “Secondary Screen Zone size (mm)” value is on record as 17-20 mm in the assay on S. cerevisiae R560-1C and 18-22 mm in the assay on S. cerevisiae W303-1A. Moreover, the minimal inhibitory concentration (MIC) (as a rule, the least concentration at which growth counts as inhibited) was above 40 µg/mL in assay [6], 0.5 µg/mL (≈ 0.483 µM) in [7], above 40 µg/mL in assay [8] and 1 µg/mL (≈ 0.965 µM) in assay [9].

Consider `CCCCCCCCOc1ccc(C(=O)N[C@H]2C[C@@H](O)[C@@H](O)NC(=O)[C@@H]3[C@@H](O)[C@@H](C)CN3C(=O)[C@H]([C@@H](C)O)NC(=O)[C@H]([C@H](O)[C@@H](O)c3ccc(O)cc3)NC(=O)[C@@H]3C[C@@H](O)CN3C(=O)[C@H]([C@@H](C)O)NC2=O)cc1` [L-646,991, cilofungin] ({Benzoyl(4-octyloxy)}-[Orn(4R-OH,5R-OH)]T[Hyp][hTyr(3S-OH,4S-OH)]T[Pro(3S-OH,4S-Me)]; lactam 1-C), for which the “resistance phenotype in liquid MIC assay” value in [10] is on record as “resistance phenotype”.

Regarding `CO[C@H]1C[C@@H]2CC[C@@H](C)[C@@](O)(O2)C(=O)C(=O)N2CCCC[C@H]2C(=O)O[C@H]([C@H](C)C[C@@H]2CC[C@@H](O)[C@H](OC)C2)CC(=O)[C@H](C)/C=C(\C)[C@@H](O)[C@@H](OC)C(=O)[C@H](C)C[C@H](C)/C=C/C=C/C=C/1C` [Rapamycin, rapamycin], the MIC in the assay on S. cerevisiae MY2256 amounted to 0.007 µg/mL (≈ 0.00766 µM); in [1] (YFK0931-07B, read-out: MIC), 0.007 µg/mL (≈ 0.00766 µM).
